Experimental data: PMC11246995 (Frontiers in Molecular Biosciences, 2024)
Where two headings read alike, the source gives them in different places.

Key:
[1] = MALDI quantitative MSI (on-tissue qMSI) of rotenone in kidney tissue sections after a single oral dose; format: in vivo; conditions: rat, single oral 2 mg/kg; for concentration at 24 h: kidney, po, 2 mg/kg
Experimental: (§1) Rats were sacrificed 24 h after drug administration, and the kidney and liver organs were immediately removed, flash-frozen with liquid nitrogen, and stored at −80°C in a freezer for long-term storage. The administration and harvesting of organs were conducted by the Pharmalytics Corporation, accredited by the Food and Drug Administration (FDA, Philippines) for bioavailability and bioequivalence research. The animal study was reviewed and approved by the Institutional Animal Care and Use Committee (IACUC) Esteleydes Animal Laboratory and Research Facility and by the Bureau of Animal Industry—Animal Health and Welfare Division in the Philippines.
Agarose-embedded kidney and liver organs were cut longitudinally at 5 µm thickness at −20°C using a cryostat (Leica CM 1950; Leica Biosystems, Germany), and thaw-mounted onto clean glass slides. The agarose-embedded kidney or liver was trimmed up to 500 µm to remove the agarose covering a portion of the organ. Subsequently, seven layers from the outer portion towards the middle were identified with a 100 µm distance between each layer. Representative cryosections were obtained from each identified layer of the untreated and drug-treated rat kidney. The agarose surrounding the kidney or liver cryosectioned tissue was manually removed before mounting onto a glass slide. Prior to matrix coating, the glass slides mounted with thin kidney cryosections were placed in a box and kept in a vacuum desiccator cabinet overnight ([Costa et al., 2013]; [Marques et al., 2014]; [Dalisay et al., 2015]; [Suarez et al., 2023]).
Matrix solution was applied to evenly coat the entire tissue surface using a HTX M5 Sprayer (HTX Technologies, LLC, Carrboro, NC, United States). The parameter settings were optimized to avoid metabolite delocalization and compromised spatial integrity. The kidney sections were sprayed with a matrix solution of 2,5-dihydroxybenzoic acid (DHB) (Acros Organics, New Jersey, United States) at a concentration of 40 mg/mL in MeOH/H2O (1:1 v/v). Matrix solution was homogeneously applied for 6 passes in a criss-cross (CC) pattern with a nozzle temperature of 80°C, 1 mm track spacing, 1,250 mm/min nozzle speed, and 10 psi nitrogen pressure.
This method utilized an untreated kidney tissue sample which was sectioned and mounted on a clean glass slide. An on-tissue calibration curve method for qMSI was followed ([Kibbe and Muddiman, 2024]). […] Linear regression analysis was applied and inspected to confirm linearity. The untreated tissue was spotted with calibrants, allowed to dry, and coated with matrix (DHB 40 mg/mL in MeOH:H2O, 1:1 v/v). MALDI MSI data were acquired in 100 μm pixel resolution using MALDI SYNAPT XS (Waters Corporation, Manchester, United Kingdom) in positive mode. The experiment was performed with three replicates per calibrant in three independent trials. In order to address variations that may occur during data acquisition for qMSI, the ion signals were normalized to the total ion current (TIC). The intensities obtained for each concentration were plotted and approximated using the least-squares method. The limits of detection (LOD) and quantification (LOQ) were calculated by averaging the calibration curves, using signal-to-noise ratios (S/N) of 3:1 for LOD and 10:1 for LOQ. The validity of these limits was confirmed by applying serially diluted rotenone onto the tissue. In cases where the blank response has a standard deviation (SD) of zero, the SD of the lowest non-zero concentration was utilized. The SD value was divided by the slope of the calibration curve and multiplied by 3.3. The LOD was calculated using the formula LOD=3.3 x SDlowest non−zero concentration/slope of the calibration curve
To calculate the LOD and LOQ values in kidney tissue (pg/ng), the values were divided by the renal tissue density (ng/µL). […]

kidney tissues = assay: H&E histology of rotenone-treated kidney tissue sections; format: in vivo; conditions: rat, single oral 2 mg/kg, 24 h
Experimental: as §1
Matrix was removed from the laser-ablated kidney sections using 95% EtOH for 20 s before rehydration with distilled water. The tissue-mounted glass slides were immersed in Harris hematoxylin solution (Sigma Aldrich, St. Louis, MO, United States) for 4 min and the excess was rinsed off with deionized water twice for 1 min. Hematoxylin differentiation of tissues was then performed using 0.5% acid alcohol for 10 s. The glass slides were rinsed using deionized water for 1 min followed by soaking in ammonia solution for 1 min and rinsing in deionized water twice for 1 min. Kidney sections were then counterstained using eosin Y solution (Sigma Aldrich, St. Louis, MO, United States) for 2 min. […]

[2] = Qualitative MALDI MSI with ion mobility: spatial distribution of rotenone and its metabolites in kidney and liver; format: in vivo; conditions: rat, single oral 2 mg/kg, 24 h
Source text: Matrix solution was applied to evenly coat the entire tissue surface using a HTX M5 Sprayer (HTX Technologies, LLC, Carrboro, NC, United States). The parameter settings were optimized to avoid metabolite delocalization and compromised spatial integrity. […]

rats = conditions: ref Jiang et al. (2017); cited from earlier work
[3] = ref Udeani et al., 2001; Organization for Economic Cooperation and Development, 2020; cited from earlier work

Work on `C=C(C)[C@H]1Cc2c(ccc3c2O[C@@H]2COc4cc(OC)c(OC)cc4[C@@H]2C3=O)O1` [rotenone, Rotenone] yielded a concentration at 24 h ([1]; AVERAGE ± SD of 7 kidney tissue sections, read-out: Concentration) of 6200 ± 3800 ng/mL, a concentration at 24 h ([1]; AVERAGE ± SD of 7 kidney tissue sections, read-out: Relative concentration per tissue section) of 5860 ng/g and a concentration at 24 h ([1]; Kidney Tissue 1 (layer 1), read-out: Concentration) of 3600 ng/mL. It also gave a concentration at 24 h ([1]; Kidney Tissue 1 (layer 1), read-out: Relative concentration per tissue section) of 1650 ng/g, a concentration at 24 h ([1]; Kidney Tissue 2 (layer 2), read-out: Concentration) of 2000 ng/mL and a concentration at 24 h ([1]; Kidney Tissue 2 (layer 2), read-out: Relative concentration per tissue section) of 1100 ng/g. It also gave a concentration at 24 h ([1]; Kidney Tissue 3 (layer 3), read-out: Concentration) of 2600 ng/mL, a concentration at 24 h ([1]; Kidney Tissue 3 (layer 3), read-out: Relative concentration per tissue section) of 1910 ng/g and a concentration at 24 h ([1]; Kidney Tissue 4 (layer 4), read-out: Concentration) of 7200 ng/mL. The concentration at 24 h ([1]; Kidney Tissue 4 (layer 4), read-out: Relative concentration per tissue section) was 5950 ng/g, the concentration at 24 h ([1]; Kidney Tissue 5 (layer 5), read-out: Concentration) was 7000 ng/mL and the concentration at 24 h ([1]; Kidney Tissue 5 (layer 5), read-out: Relative concentration per tissue section) was 6420 ng/g. For the same molecule, the concentration at 24 h ([1]; Kidney Tissue 6 (layer 6), read-out: Concentration) was 8000 ng/mL, the concentration at 24 h ([1]; Kidney Tissue 6 (layer 6), read-out: Relative concentration per tissue section) was 9210 ng/g and the concentration at 24 h ([1]; Kidney Tissue 7 (layer 7), read-out: Concentration) was 12800 ng/mL. For the same molecule, the concentration at 24 h ([1]; Kidney Tissue 7 (layer 7), read-out: Relative concentration per tissue section) was 14700 ng/g, the “Normalized Mass intensity by TIC” value ([1]; 24 h, AVERAGE ± SD of 7 kidney tissue sections) was 0.0042 ± 0.0019 and the “Normalized Mass intensity by TIC” value ([1]; 24 h, Kidney Tissue 1 (layer 1)) was 0.0030. The “Normalized Mass intensity by TIC” value ([1]; 24 h, Kidney Tissue 2 (layer 2)) was 0.0022, the “Normalized Mass intensity by TIC” value ([1]; 24 h, Kidney Tissue 3 (layer 3)) was 0.0025 and the “Normalized Mass intensity by TIC” value ([1]; 24 h, Kidney Tissue 4 (layer 4)) was 0.0048. The “Normalized Mass intensity by TIC” value ([1]; 24 h, Kidney Tissue 5 (layer 5)) was 0.0047, the “Normalized Mass intensity by TIC” value ([1]; 24 h, Kidney Tissue 6 (layer 6)) was 0.0052 and the “Normalized Mass intensity by TIC” value ([1]; 24 h, Kidney Tissue 7 (layer 7)) was 0.0076. For the same molecule, the “Detected amount of rotenone drug in picograms per nanogram of tissue mass” value ([1]; 24 h, range over seven kidney layers) was 0.0011 to 0.0147 pg/ng, the “histological alterations in kidney tissue sections stained with H&E” value (kidney tissues) was “no discernible histological alterations were detected” and the “biotransformed metabolites of rotenone in kidney tissue sections (MALDI MSI)” value ([2]; kidney) was “no biotransformed metabolites of rotenone were detected”. For the same molecule, the “biotransformed metabolites of rotenone in liver tissues (MALDI MSI)” value ([2]; liver) was “no biotransformed metabolites”, the oral acute toxicity (rats) was 34.10 mg/kg body weight and the metabolic clearance rate [3] was “approximately 100 mL/min/kg”.
